Experimental findings from paper PMC10865345, “Multivalent Calixarene Complexation of a Designed Pentameric Lectin” (Biomacromolecules, 2024) are described below.

Usually pKd stands for the negative decadic logarithm of the Kd, by convention in mol/L. Lower therefore signals a large Kd.

Molecules are shown by their SMILES. pKd: −log10 of the molar value. A value given as a limit tells only on which side of the number the result lay.

In the assay the target is T1, Pent (designed pentameric 5-bladed β-propeller lectin, 5c2n-N33K).
T1 construct: 47-residue monomer (lacking Met1), homopentamer of ~26 kDa; designed, based on tachylectin-2 (PDB 5C2N)
As to the kind of experiment: X-ray cocrystal structures (forms I and II); 1H-15N HSQC NMR titration. It counts as binding, synthetic construct.

As to `O=S(=O)(O)c1cc2c(O)c(c1)Cc1cc(S(=O)(=O)O)cc(c1O)Cc1cc(S(=O)(=O)O)cc(c1O)Cc1cc(S(=O)(=O)O)cc(c1O)Cc1cc(S(=O)(=O)O)cc(c1O)Cc1cc(S(=O)(=O)O)cc(c1O)Cc1cc(S(=O)(=O)O)cc(c1O)Cc1cc(S(=O)(=O)O)cc(c1O)C2` [sclx8, sulfonato-calix[8]arene], the negative logarithm of the Kd (pKd) was greater than 5.52.
